Experimental data: article PMC3411462, “Long-acting κ opioid antagonists nor-BNI, GNTI and JDTic: pharmacokinetics in mice and lipophilicity” (BMC Pharmacology, 2012)
“And” between values parts separate entries of the source, which are not always exact repeats. Identical values can stand only once. Like-named read-outs stand apart in the source and are kept apart here.

Tests used:
[1] = Octanol-buffer distribution (log D7.4); type: physicochemical
Description: Phosphate-buffered saline (PBS, pH 7.4) and 1-octanol were mutually saturated by vigorous stirring at room temperature for 18 h, and then separated. Drug solutions of 0.1 mg mL^-1 in PBS were prepared, and 500 μL aliquots were added to 1.5 mL micro-centrifuge tubes with an equal volume of 1-octanol. Three samples were vortex-mixed for 1, 10 and 30 minutes respectively, then centrifuged at room temperature (12,000 rpm for 15 minutes). Aliquots of the upper octanol layer were removed by pipette. A disposable syringe was inserted while bubbling air through the upper layer, an aliquot of the lower PBS layer withdrawn, and the needle removed before transferring. Samples were stored in glass sample vials at −20 °C until analysis by LC-MS-MS.
(§1) Drug concentrations (ng mL^-1) refer to the free base, and were measured by liquid chromatography-tandem mass spectrometry (LC-MS-MS) as described previously. Briefly, samples were shaken with 3 volumes of methanol and centrifuged at 3000 g. Aliquots of the supernatants were diluted with 5 volumes of water containing an appropriate internal standard. Extracts from in vitro and in vivo experiments were analyzed by multiple reaction monitoring on an API3000 or API4000 LC-MS-MS system with electrospray ion source, controlled and analyzed using the Analyst software package (Applied Biosystems, Foster City, CA). Chromatography was conducted on a Sprite Armor C18 analytical column (20 × 2.1 mm, 10 μm particle size, Analytical Sales and Products, Pompton Plains, NJ) with a 0.5 μm PEEK guard filter. Compounds were eluted with a gradient from 2% to 95% acetonitrile in water, both containing 0.1% formic acid. Compounds were detected in positive ion mode, tuned to the mass transition with the largest intensity. Analyte concentrations were determined by comparison of analyte:internal standard peak area ratios to those of standards prepared in the appropriate matrices.

mice = experiment: Fatalities and behavioral effects after i.p. administration
Description: Experiments were performed between 10 am and 6 pm. Mice were not used in other experiments, or exposed to other drugs, before testing began.
Doses are reported by weight of the specified salt. Intraperitoneal injections were administered in distilled water vehicle (10 mL kg^-1). Body mass was measured to ±0.1 g. Some values were inadvertently measured on a low-precision balance (± 2.5 g); these timepoints were replicated at ±0.1 g.

[2] = Plasma binding (unbound fraction by ultracentrifugation); type: in vitro ADME; settings: 5 μM drug, mean, n = 3
Description: Unbound fractions in brain homogenate and plasma were determined by ultracentrifugation as described previously. Briefly, drug-spiked matrices (5 μM drug in plasma or brain homogenate) were centrifuged at 600,000 g for 5 h at 37 °C (plasma) or 5 °C (brain). Aliquots of the middle (water) layer were added to an equal volume of blank matrix and extracted with 5 volumes of acetonitrile containing internal standard. Aliquots of the original spiked matrix were mixed with an equal volume of blank matrix and 2 volumes of plasma ultrafiltrate (plasma) or phosphate-buffered saline (tissue) and extracted with 10 volumes of acetonitrile. Extracts were centrifuged and analyzed by LC-MS-MS. Fraction unbound was calculated from the ratio of concentration in the water layer to that in the original spiked matrix, corrected for dilution as described previously.

[3] = Brain and plasma concentrations in mice after intraperitoneal administration (LC-MS-MS), non-compartmental analysis; type: in vivo; settings: for [drug],plasma (free base equivalent): listed as GNTI.2HCl.H2O; for [drug],plasma (free base equivalent) / concentration at 0.5 h / concentration at 1 h / concentration at 2 h / concentration at 4 h / concentration at 24 h / AUC(0-inf) / CL/F / Vd/F: 10 mg/kg
Description: Doses are reported by weight of the specified salt. […] Body mass was measured to ±0.1 g.
Mice were sacrificed by cervical dislocation, then decapitated for collection of brain and blood samples. Trunk blood was collected in 1.5 mL polypropylene micro-centrifuge tubes, shaken with a few crystals of EDTA and cooled in ice-water. Samples were centrifuged at 14,000 rpm (revolutions per minute) for 15 minutes at 3 °C, then stored in glass sample vials at −20 °C until analysis. Brains were removed and immersed for 30 seconds in 2-methylbutane over dry ice, then stored in polypropylene tubes at −20 °C until sample preparation. Sample tubes were thawed in ice-water, distilled water was added (2:1 by weight) and the brain homogenized with a probe sonicator for 3 minutes over ice-water (Fisher Sonic Dismembrator 300 at 35% power). The probe was rinsed with ethanol and distilled water between samples. Brain homogenate was stored in glass sample vials at −20 °C until analysis by LC-MS-MS.
as §1
For calculation of mean concentrations, the earliest values below the MRC were substituted by MRC ÷ 2, as recommended elswhere. Pharmacokinetic parameters were calculated from mean concentrations using PKSolver, employing non-compartmental analysis for extravascular administration. Curves in figures were fitted using Origin 8.5 (OriginLab, Northampton, MA) using 2-compartment models. Confidence intervals and two-tailed p values (unpaired t test) were calculated using Graphpad Quickcalcs. One outlier was identified using Grubbs' test (p < 0.01) and excluded from the analysis; see Additional file 1.

[4] = 0.5 h, 10 mg/kg i.p., individual mice
[5] = 1 h, 10 mg/kg i.p., individual mice
[6] = 2 h, 10 mg/kg i.p., individual mice
[7] = male, Swiss-Webster, mouse, ip, plasma NCA, 10 mg/kg i.p.

N=C(N)Nc1ccc2[nH]c3c(c2c1)C[C@@]1(O)[C@H]2Cc4ccc(O)c5c4[C@@]1(CCN2CC1CC1)[C@H]3O5 [GNTI, 5’-guanidinonaltrindole]
logD ([1]; 1-octanol/PBS, pH 7.4, pooled mixing times 1, 10, 30 min): -0.08 | logD at 1 min ([1]; 1-octanol/PBS, mixing time 1 min, octanol/PBS pH 7.4): -0.07 | logD at 10 min ([1]; 1-octanol/PBS, mixing time 10 min, octanol/PBS pH 7.4): -0.11 | logD at 30 min ([1]; 1-octanol/PBS, mixing time 30 min, octanol/PBS pH 7.4): -0.0527 | Log10D7.4 octanol:buffer (pH 7.4) ([1]; mean, n = 3): -0.1 | Fatalities (mice; 10 mg kg^-1, 15 mice monitored for at least 30 minutes): no fatalities | Time to death after injection (mice; 30 mg kg^-1): ≤ 11 min | Fatalities (mice; 30 mg kg^-1, three mice): all three mice unexpectedly became ataxic, followed by convulsions and death | fraction unbound at 5 h, 5 μM [2]: 0.28 | Time of maximal mean plasma level ([3]; 10 mg kg^-1 i.p., mice): 30 min | [drug],brain (free base equivalent) [3, 4]: <120 ng/g | [drug],plasma (free base equivalent) [3, 4]: 3610 ng/mL and 1790 ng/mL and 3840 ng/mL | [drug],brain (free base equivalent) [3, 5]: <120 ng/g | [drug],plasma (free base equivalent) [3, 5]: 1750 ng/mL and 2420 ng/mL and 4880 ng/mL | [drug],brain (free base equivalent) [3, 6]: <120 ng/g | [drug],plasma (free base equivalent) [3, 6]: 1120 ng/mL and 3700 ng/mL and 2910 ng/mL | [drug],plasma (free base equivalent) ([3]; 4 h, 10 mg/kg i.p., individual mice): 114 ng/mL and 206 ng/mL | [drug],plasma (free base equivalent) ([3]; 24 h, 10 mg/kg i.p., individual mice): <13 ng/mL | Brain levels (below MRC) ([3]; all timepoints, 10 mg kg^-1 i.p.): < 120 ng/mL | C max,brain ([3]; brain, 10 mg kg^-1 i.p., mice): < 120 ng/mL | Decline of mean plasma concentration from peak ([3]; by 24 hours, 10 mg kg^-1 i.p.): at least 98% | Kp uu ([3]; male, Swiss-Webster, mouse, brain and plasma (unbound), intraperitoneal, postmortem samples, 13–18 minutes after 39 mg kg^-1 GNTI·2CF3CO2H, read-out: Cmax,brain,u/Cmax,p,u): < 0.0007 | Kp ([3]; male, Swiss-Webster, mouse, brain and plasma, intraperitoneal, postmortem samples, 13–18 minutes after 39 mg kg^-1 GNTI·2CF3CO2H, read-out: Cmax,brain/Cmax,p): 0.0085 | concentration at 0.5 h ([3]; male, Swiss-Webster, mouse, brain, ip, 0.5 h, 10 mg/kg i.p., individual mice, read-out: [drug],brain (free base equivalent)): < 120 ng/g | concentration at 0.5 h ([3]; male, Swiss-Webster, mouse, brain, ip, 0.5 h, 10 mg/kg i.p., read-out: mean (brain)): < 120 ng/g | concentration at 1 h ([3]; male, Swiss-Webster, mouse, brain, ip, 1 h, 10 mg/kg i.p., individual mice, read-out: [drug],brain (free base equivalent)): < 120 ng/g | concentration at 2 h ([3]; male, Swiss-Webster, mouse, brain, ip, 2 h, 10 mg/kg i.p., individual mice, read-out: [drug],brain (free base equivalent)): < 120 ng/g | Tmax ([3]; male, Swiss-Webster, mouse, in vivo, ip, ·2HCl salts, 10 mg kg^-1 i.p., mice): 0.5 h | AUC(0-t) [3, 7]: 9450 ng·h/mL | Tmax [3, 7]: 0.5 h | k el ([3]; male, Swiss-Webster, mouse, ip, plasma NCA, 10 mg/kg i.p., read-out: Lambda_z (converted)): 6.68e-05 s⁻¹ | MRT inf ([3]; male, Swiss-Webster, mouse, ip, plasma NCA, 10 mg/kg i.p., read-out: MRT 0-inf_obs): 2.18 h | half-life ([3]; male, Swiss-Webster, mouse, ip, plasma NCA, 10 mg/kg i.p., read-out: t1/2 (converted)): 2.88 h | Cmax ([3]; male, Swiss-Webster, mouse, ip, plasma, 10 mg kg^-1 i.p., mice, read-out: C max,p): 3080 ng/mL | concentration at 0.5 h ([3]; male, Swiss-Webster, mouse, plasma, intraperitoneal, 0.5 h, read-out: Conc (plasma, NCA input)): 3080 ng/mL | concentration at 1 h ([3]; male, Swiss-Webster, mouse, plasma, intraperitoneal, 1 h, read-out: Conc (plasma, NCA input)): 3020 ng/mL | concentration at 2 h ([3]; male, Swiss-Webster, mouse, plasma, intraperitoneal, 2 h, read-out: Conc (plasma, NCA input)): 2580 ng/mL | concentration at 4 h ([3]; male, Swiss-Webster, mouse, plasma, intraperitoneal, 4 h, read-out: Conc (plasma, NCA input)): 154 ng/mL | concentration at 24 h ([3]; male, Swiss-Webster, mouse, plasma, intraperitoneal, 24 h, read-out: Conc (plasma, NCA input)): 8.8 ng/mL | concentration at 0.5 h ([3]; male, Swiss-Webster, mouse, plasma, ip, 0.5 h, 10 mg/kg i.p., read-out: mean (plasma)): 3080 ng/mL | concentration at 1 h ([3]; male, Swiss-Webster, mouse, plasma, ip, 1 h, 10 mg/kg i.p., read-out: mean (plasma)): 3020 ng/mL | concentration at 2 h ([3]; male, Swiss-Webster, mouse, plasma, ip, 2 h, 10 mg/kg i.p., read-out: mean (plasma)): 2580 ng/mL | concentration at 4 h ([3]; male, Swiss-Webster, mouse, plasma, ip, 4 h, 10 mg/kg i.p., individual mice, read-out: [drug],plasma (free base equivalent)): 142 ng/mL | concentration at 4 h ([3]; male, Swiss-Webster, mouse, plasma, ip, 4 h, 10 mg/kg i.p., read-out: mean (plasma)): 154 ng/mL | concentration at 24 h ([3]; male, Swiss-Webster, mouse, plasma, ip, 24 h, 10 mg/kg i.p., individual mice, read-out: [drug],plasma (free base equivalent)): 13 ng/mL | concentration at 24 h ([3]; male, Swiss-Webster, mouse, plasma, ip, 24 h, 10 mg/kg i.p., <MRC substituted by MRC/2, read-out: mean (plasma)): 9 ng/mL | AUC(0-inf) ([3]; male, Swiss-Webster, mouse, plasma, ip, plasma NCA, 10 mg/kg i.p., read-out: AUC 0-inf_obs): 9490 ng·h/mL | CL/F ([3]; male, Swiss-Webster, mouse, plasma, ip, plasma NCA, 10 mg/kg i.p., read-out: Cl/F_obs (converted)): 17.6 mL/min/kg | Vd/F ([3]; male, Swiss-Webster, mouse, plasma, ip, plasma NCA, 10 mg/kg i.p., read-out: Vz/F_obs): 4.38 L/kg | AUC(0-inf) ([3]; male, Swiss-Webster, mouse, plasma, ip, plasma, 10 mg kg^-1 i.p., non-compartmental analysis, read-out: AUC 0–∞,p): 9490 ng·h/mL | CL/F ([3]; male, Swiss-Webster, mouse, plasma, ip, plasma, 10 mg kg^-1 i.p., non-compartmental analysis, read-out: CL/F (converted)): 16.7 mL/min/kg | Vd/F ([3]; male, Swiss-Webster, mouse, plasma, ip, plasma, 10 mg kg^-1 i.p., non-compartmental analysis, read-out: V z /F): 4.4 L/kg | AUMC 0-inf_obs ([3]; plasma NCA, 10 mg/kg i.p.): 20681.1 ng/ml*h^2 | Tlag ([3]; plasma NCA, 10 mg/kg i.p.): 0 h | C max,brain,u ([3]; unbound brain, 10 mg kg^-1 i.p., in vivo brain binding assumed at least 3-fold greater than homogenate): < 6 nM
